Results from patent publication US10766869B2, “Triazoles for the treatment of demyelinating dieases” (Vertex Pharmaceuticals Incorporated, priority 2015, dated 2020).

Tested on: primary rat mixed cortical cells
Experiment: In vitro myelination assay (MBP positive myelin strands, fold myelin pixels above background)
Assay type: cell-based
Conditions: Rattus norvegicus, read-out: Fold myelin pixels above background relative to baseline of no added compound; for fold induction at 1 µM: 1.0 μM compound; for fold induction at 10 µM: 10.0 μM compound
How it was run: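 Mixed cortical culture, P1 rat, 87,500-95,000 cells/well; compound present from seeding, refreshed days 6 and 10; 14 d, 37 °C, 5% CO2. Day 14: PFA fix, anti-MBP + Hoechst. Read-out: fold MBP myelin pixels over untreated, tested at 1.0 and 10.0 μM.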

| Structure (SMILES) | fold induction at 1 µM | fold induction at 10 µM |
| --- | --- | --- |
| Cc1cc(Nc2ncn(-c3cc(F)cc(F)c3)n2)cc(N2CCN(CC3CCCN(C)C3)CC2)c1 (stereo not drawn) [Compound 1047, 1-(3,5-difluorophenyl)-N-[3-methyl-5-[4-[(1-methyl-3-piperidyl)methyl]piperazin-1-yl]phenyl]-1,2,4-triazol-3-amine] | 1 to 10 | ≤ 1 |
| Cc1cc(Nc2ncn(-c3cc(F)cc(F)c3)n2)cc(NC2CCOC3(CCOC3)C2)c1 (stereo not drawn) [Compound 1048, N3-[1-(3,5-difluorophenyl)-1,2,4-triazol-3-yl]-N1-(2,6-dioxaspiro[4.5]decan-9-yl)-5-methyl-benzene-1,3-diamine] | 10 to 100 | ≤ 1 |
| Cc1cc(Nc2ncn(-c3ccccc3)n2)cc(Nc2ncc(C)o2)c1 [Compound 1049, 5-methyl-N1-(5-methyloxazol-2-yl)-N3-(1-phenyl-1,2,4-triazol-3-yl)benzene-1,3-diamine] | 1 to 10 | 10 to 100 |
| COCCN1CCCC(Nc2cc(C)cc(Nc3ncn(-c4cc(F)cc(F)c4)n3)c2)C1 (stereo not drawn) [Compound 1050, N3-[1-(3,5-difluorophenyl)-1,2,4-triazol-3-yl]-N1-[1-(2-methoxyethyl)-3-piperidyl]-5-methyl-benzene-1,3-diamine] | 10 to 100 | ≤ 1 |
| Cc1cc(Nc2ncn(-c3cc(F)cc(F)c3)n2)cc(N2CCCC2CS(C)(=O)=O)c1 (stereo not drawn) [Compound 1051, 1-(3,5-difluorophenyl)-N-[3-methyl-5-[2-(methylsulfonylmethyl)pyrrolidin-1-yl]phenyl]-1,2,4-triazol-3-amine] | 10 to 100 | 1 to 10 |
| Cc1cc(Nc2ncn(-c3cc(F)cc(F)c3)n2)cc(N2CCC(N3CCCC(O)C3)CC2)c1 (stereo not drawn) [Compound 1054, 1-[1-[3-[[1-(3,5-difluorophenyl)-1,2,4-triazol-3-yl]amino]-5-methyl-phenyl]-4-piperidyl]piperidin-3-ol] | ≤ 1 | ≤ 1 |
| CCC1CN(c2cc(C)cc(Nc3ncn(-c4cc(F)cc(F)c4)n3)c2)CCN1CC(C)O (stereo not drawn) [Compound 1056, 1-[4-[3-[[1-(3,5-difluorophenyl)-1,2,4-triazol-3-yl]amino]-5-methyl-phenyl]-2-ethyl-piperazin-1-yl]propan-2-ol] | 1 to 10 | ≤ 1 |
| Cc1cc(Nc2ncn(-c3cc(F)cc(F)c3)n2)cc(N2CCC3OCC3C2)c1 (stereo not drawn) [Compound 1057, 1-(3,5-difluorophenyl)-N-[3-methyl-5-(8-oxa-4-azabicyclo[4.2.0]octan-4-yl)phenyl]-1,2,4-triazol-3-amine] | 1 to 10 | ≤ 1 |
| Cc1cc(NC(=O)C2CC2)cc(Nc2ncn(-c3ccccc3)n2)c1 [Compound 1058, N-[3-methyl-5-[(1-phenyl-1,2,4-triazol-3-yl)amino]phenyl]cyclopropanecarboxamide] | 10 to 100 | 10 to 100 |
| Cc1cc(Nc2ncn(-c3cc(F)cc(F)c3)n2)cc(NC(C)C2CC2)c1 (stereo not drawn) [Compound 1059, N1-(1-cyclopropylethyl)-N3-[1-(3,5-difluorophenyl)-1,2,4-triazol-3-yl]-5-methyl-benzene-1,3-diamine] | 10 to 100 | ≤ 1 |
| Cc1cc(Nc2ncn(-c3cc(F)cc(F)c3)n2)cc(N2CCC(N3CCCC3)C2)c1 (stereo not drawn) [Compound 1060, 1-(3,5-difluorophenyl)-N-[3-methyl-5-(3-pyrrolidin-1-ylpyrrolidin-1-yl)phenyl]-1,2,4-triazol-3-amine] | 1 to 10 | ≤ 1 |
| Cc1cc(NCC2COCCN2C)cc(Nc2ncn(-c3cc(F)cc(F)c3)n2)c1 (stereo not drawn) [Compound 1062, N1-[1-(3,5-difluorophenyl)-1,2,4-triazol-3-yl]-5-methyl-N3-[(4-methylmorpholin-3-yl)methyl]benzene-1,3-diamine] | 10 to 100 | ≤ 1 |
